Experimental data taken from patent publication US20250197420A1, “MACROCYCLIC COMPOUNDS, COMPOSITIONS, AND METHODS OF USING THEREOF” (Sionna Therapeutics Inc., priority 2022, published 2025).

Legend:
[1] = biological target: T1, Purified recombinant NBD1 (Homo sapiens, UniProt P13569); experiment: Aggregation analysis using differential static light scattering (DSLS): thermal stability of NBD1; format: binding; details: NBD1 0.2 mg/ml; Tagg of compound well minus average Tagg of DMSO control wells
T1 construct: Purified recombinant NBD1 was produced using previously described methods; made in house
Outline: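 ΔTagg is compound-well aggregation temperature minus the DMSO-control mean, each Tagg being the inflection point of light scattering measured by DSLS during a 1 °C/min ramp up to 70 °C. The protein was purified NBD1 (0.2 mg/ml) in pH 7.6 buffer containing 2 mM ATP, 5 mM MgCl2 and 1% glycerol.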

[2] = system: Primary human bronchial epithelial cells from a ΔF508 homozygous CF donor (CF-HBE cells); experiment: TECC24 recording of CFTR-mediated transepithelial chloride transport, AUC fold over benchmark VX-809 @10 μM; format: cell-based; details: 48 hours incubation, AUC of forskolin-stimulated IEQ
Outline: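 Values are the forskolin-to-inhibitor-172 AUC of equivalent Cl− current, derived from transepithelial voltage and resistance, divided by the VX-809 AUC and binned as A <3, B 3–6, C 6–20. Cells were pre-incubated with compound for 48 h at 36.5 °C; the bath (pH 7.4) received benzamil 10 μM, forskolin 10 μM, then CFTRinh-172 20 μM.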

T1 sequence (P13569 423-646 limits assumed): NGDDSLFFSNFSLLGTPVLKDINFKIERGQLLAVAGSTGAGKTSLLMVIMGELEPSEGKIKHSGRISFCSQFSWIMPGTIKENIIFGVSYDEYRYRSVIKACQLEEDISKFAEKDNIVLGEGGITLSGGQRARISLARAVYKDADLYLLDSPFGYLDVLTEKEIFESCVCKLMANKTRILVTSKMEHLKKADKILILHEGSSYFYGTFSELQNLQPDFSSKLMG

| SMILES | DSLS (ΔTagg) [1] | TECC (test agent AUC divided by VX-809 AUC) [2] |
| --- | --- | --- |
| CN1CC(C)(C)CCCC(C)(c2cccc(CC(=O)O)c2)c2cnc([nH]2)-c2cc(ccc2F)Oc2c(F)cc3[nH]ccc3c2CCC1=O (single isomer, unassigned) [Compound 65B, 2-[3-(23,29-difluoro-6,10,10,12-tetramethyl-13-oxo-25-oxa-3,12,20,31-tetrazapentacyclo-[24.3.1.12,5.016,24.017,21]hentriaconta-1(30),2,4,16,18,21,23,26,28-nonaen-6-yl)phenyl]acetic acid] | C (a value greater than 10 °C and less than or equal to 25 °C is marked “C”) | A (a TECC value less than 3 is marked “A”) |
| [2H]C([2H])([2H])C1(c2cccc(CCC(=O)O)c2)CCCC(C)(C)CN(C)C(=O)CCc2c(c(F)cc3[nH]ccc23)Oc2ccc(F)c(c2)-c2ncc1[nH]2 (single isomer, unassigned) [Compound 66A] | A (an ΔTagg value less than or equal to 5 °C is marked “A”) | A (a TECC value less than 3 is marked “A”) |
| [2H]C([2H])([2H])C1(c2cccc(CCC(=O)O)c2)CCCC(C)(C)CN(C)C(=O)CCc2c(c(F)cc3[nH]ccc23)Oc2ccc(F)c(c2)-c2ncc1[nH]2 (single isomer, unassigned) [Compound 66B] | C (a value greater than 10 °C and less than or equal to 25 °C is marked “C”) | A (a TECC value less than 3 is marked “A”) |
| CC1(C)CNC(=O)CCc2c(c(F)cc3[nH]ccc23)Oc2ccc(F)c(c2)-c2ncc([nH]2)C(C)(c2cccc(CCC(=O)O)c2)CCOC1 (single isomer, unassigned) [Compound 67A, 3-[3-(24,30-difluoro-6,11,11-trimethyl-14-oxo-9,26-dioxa-3,13,21,32-tetrazapentacyclo[25.3.1.12,5.017,25.018,22]dotriaconta-1(31),2,4,17,19,22,24,27,29-nonaen-6-yl)phenyl]propanoic acid] | C (a value greater than 10 °C and less than or equal to 25 °C is marked “C”) | C (a value between 6 and 20 is marked “C”) |
| CC1(C)CNC(=O)CCc2c(c(F)cc3[nH]ccc23)Oc2ccc(F)c(c2)-c2ncc([nH]2)C(C)(c2cccc(CCC(=O)O)c2)CCOC1 (single isomer, unassigned) [Compound 67B, 3-[3-(24,30-difluoro-6,11,11-trimethyl-14-oxo-9,26-dioxa-3,13,21,32-tetrazapentacyclo[25.3.1.12,5.017,25.018,22]dotriaconta-1(31),2,4,17,19,22,24,27,29-nonaen-6-yl)phenyl]propanoic acid] | B (a value above 5 °C and less than or equal to 10 °C is marked “B”) | A (a TECC value less than 3 is marked “A”) |
| CC1(c2cccc(CCC(=O)O)c2)CCCC2(CC2)CNC(=O)CCc2c(c(F)c(F)c3[nH]ccc23)Oc2ccc(F)c(c2)-c2ncc1[nH]2 (single isomer, unassigned) [Compound 69A, 3-[3-(22,23,29-trifluoro-6-methyl-13-oxo-spiro[25-oxa-3,12,20,31-tetrazapentacyclo-[24.3.1.12,5.016,24.017,21]hentriaconta-1(30),2,4,16,18,21,23,26,28-nonaene-10,1′-cyclopropane]-6-yl)phenyl]propanoic acid] | A (an ΔTagg value less than or equal to 5 °C is marked “A”) | B (a value between 3 and 6 is marked “B”) |
| CC1(c2cccc(CCC(=O)O)c2)CCCC2(CC2)CNC(=O)CCc2c(c(F)c(F)c3[nH]ccc23)Oc2ccc(F)c(c2)-c2ncc1[nH]2 (single isomer, unassigned) [Compound 69B, 3-[3-(22,23,29-trifluoro-6-methyl-13-oxo-spiro[25-oxa-3,12,20,31-tetrazapentacyclo-[24.3.1.12,5.016,24.017,21]hentriaconta-1(30),2,4,16,18,21,23,26,28-nonaene-10,1′-cyclopropane]-6-yl)phenyl]propanoic acid] | A (an ΔTagg value less than or equal to 5 °C is marked “A”) | B (a value between 3 and 6 is marked “B”) |
| CN1CC(C)(C)CCCC(C)(c2cccc(CCC(=O)O)c2)c2cnc([nH]2)-c2cc(ccc2F)Oc2c(F)cc3[nH]cnc3c2CCC1=O (single isomer, unassigned) [Compound 72A, 3-[3-(23,29-difluoro-6,10,10,12-tetramethyl-13-oxo-25-oxa-3,12,18,20,31-pentazapentacyclo-[24.3.1.12,5.016,24.017,21]hentriaconta-1(30),2,4,16,18,21,23,26,28-nonaen-6-yl)phenyl]propanoic acid] | A (an ΔTagg value less than or equal to 5 °C is marked “A”) | A (a TECC value less than 3 is marked “A”) |
| CN1CC(C)(C)CCCC(C)(c2cccc(CCC(=O)O)c2)c2cnc([nH]2)-c2cc(ccc2F)Oc2c(F)cc3[nH]cnc3c2CCC1=O (single isomer, unassigned) [Compound 72B, 3-[3-(23,29-difluoro-6,10,10,12-tetramethyl-13-oxo-25-oxa-3,12,18,20,31-pentazapentacyclo-[24.3.1.12,5.016,24.017,21]hentriaconta-1(30),2,4,16,18,21,23,26,28-nonaen-6-yl)phenyl]propanoic acid] | B (a value above 5 °C and less than or equal to 10 °C is marked “B”) | A (a TECC value less than 3 is marked “A”) |
| CN1CC(C)(C)CCC(C)(c2cccc(CCC(=O)O)c2)c2nc(n(C)n2)-c2cc(ccc2F)Oc2c(F)cc3[nH]ccc3c2CCC1=O (single isomer, unassigned) [Compound 75A, 3-[3-(22,28-difluoro-3,6,9,9,11-pentamethyl-12-oxo-24-oxa-3,4,11,19,30-pentazapentacyclo[23.3.1.12,5.015,23.016,20]triaconta-1(29),2(30),4,15,17,20,22,25,27-nonaen-6-yl)phenyl]propanoic acid] | B (a value above 5 °C and less than or equal to 10 °C is marked “B”) | B (a value between 3 and 6 is marked “B”) |
| CN1CC(C)(C)CCC(C)(c2cccc(CCC(=O)O)c2)c2nc(n(C)n2)-c2cc(ccc2F)Oc2c(F)cc3[nH]ccc3c2CCC1=O (single isomer, unassigned) [Compound 75B, 3-[3-(22,28-difluoro-3,6,9,9,11-pentamethyl-12-oxo-24-oxa-3,4,11,19,30-pentazapentacyclo[23.3.1.12,5.015,23.016,20]triaconta-1(29),2(30),4,15,17,20,22,25,27-nonaen-6-yl)phenyl]propanoic acid] | A (an ΔTagg value less than or equal to 5 °C is marked “A”) | A (a TECC value less than 3 is marked “A”) |
| [2H]C([2H])([2H])n1nc2nc1-c1cc(ccc1F)Oc1c(F)cc3[nH]ccc3c1CCC(=O)NCC(C)(C)CCCC2(C)c1cccc(CCC(=O)O)c1 (single isomer, unassigned) [Compound 76A, 3-[3-[23,29-difluoro-6,10,10-trimethyl-13-oxo-3-(trideuteriomethyl)-25-oxa-3,4,12,20,31-pentazapentacyclo[24.3.1.12,5.016,24.017,21]hentriaconta-1(30),2(31),4,16,18,21,23,26,28-nonaen-6-yl]phenyl]propanoic acid] | A (an ΔTagg value less than or equal to 5 °C is marked “A”) | A (a TECC value less than 3 is marked “A”) |
